Columns and labels:
Assay type in all cases: cell-based, human
HEK-293 cells = experiment: XTT cytotoxicity assay, non-tumorigenic cells; details: Homo sapiens, HEK293; XTT assay; exposure time of the IC50 not stated (24, 48, 72 h tested)
Protocol: Human cell lines for breast cancer (MCF-7), lung cancer (A549), prostate cancer (PC-3), and nontumorigenic HEK-293 were sourced from the Health Protection Agency (U.K.) and the Interlab Cell Line Collection (Italy). The cells were cultured in RPMI medium (Sigma) supplemented with 10% heat-inactivated fetal bovine serum, 1% penicillin, and 1% L-glutamine, and incubated in a humidified CO2 atmosphere at 37 °C.
(§1) To evaluate the cytotoxic effects of TZEPs, which were dissolved in dimethyl sulfoxide (DMSO), the XTT assay (2,3-bis(2-methoxy-4-nitro-5-sulfophenyl)-2H-tetrazolium-5-carboxanilide) was employed. Cells were plated in 96-well plates at a density of 10^4 cells per well and exposed to varying concentrations of TZEPs (ranging from 1 to 250 μM) for 24, 48, and 72 h. Following the incubation, 100 μL of XTT was added to each well, and the plates were incubated for an additional 4 h at 37 °C. The resulting color change was measured by recording the absorbance at 570 nm using a microplate reader (Tecan).
The IC50 values, which indicate the concentration of the compound required to inhibit 50% of cancer cell proliferation, were determined using Biosoft CalcuSyn 2.1 software. […] Conversely, an SI less than 1 means the drug is more toxic to normal cells than to target cells, which is undesirable in therapeutic contexts. In the literature, a selectivity index of 2 or higher is generally considered significant, implying that the compound selectively targets diseased cells with relatively low toxicity to healthy cells.[15]

MCF-7 cells = experiment: XTT cytotoxicity assay, breast cancer cells; details: for IC50: Homo sapiens, MCF7, XTT assay, exposure time of the IC50 not stated (24, 48, 72 h tested), read-out: IC50, breast cancer (MCF-7); for Selectivity index (SI), breast cancer (MCF-7): versus normal cells HEK-293
Protocol: (§2) The cells were cultured in RPMI medium (Sigma) supplemented with 10% heat-inactivated fetal bovine serum, 1% penicillin, and 1% L-glutamine, and incubated in a humidified CO2 atmosphere at 37 °C.
as §1, with “Cells were plated in 96-well plates at a density of 10^4 cells per well and exposed to varying concentrations of TZEPs (ranging from 1 to 250 μM) for 24, 48, and 72 h.” left out
(§3) Conversely, an SI less than 1 means the drug is more toxic to normal cells than to target cells, which is undesirable in therapeutic contexts.

A549 cells = experiment: XTT cytotoxicity assay, lung cancer cells; details: for IC50: Homo sapiens, A549, XTT assay, exposure time of the IC50 not stated (24, 48, 72 h tested), read-out: IC50, lung cancer (A549); for Selectivity index (SI), lung cancer (A549): versus normal cells HEK-293
Protocol: as §2
as §1, with “Cells were plated in 96-well plates at a density of 10^4 cells per well and exposed to varying concentrations of TZEPs (ranging from 1 to 250 μM) for 24, 48, and 72 h.” left out
as §3

PC-3 cells = experiment: XTT cytotoxicity assay, prostate cancer cells; details: for IC50: Homo sapiens, PC-3, XTT assay, exposure time of the IC50 not stated (24, 48, 72 h tested), read-out: IC50, prostate cancer (PC-3); for Selectivity index (SI), prostate cancer (PC-3): versus normal cells HEK-293
Protocol: as §2
as §1, with “Cells were plated in 96-well plates at a density of 10^4 cells per well and exposed to varying concentrations of TZEPs (ranging from 1 to 250 μM) for 24, 48, and 72 h.” left out
as §3

SMILES | IC50 (HEK-293 cells) | IC50 (MCF-7 cells) | Selectivity index (SI), breast cancer (MCF-7) (MCF-7 cells) | IC50 (A549 cells) | Selectivity index (SI), lung cancer (A549) (A549 cells) | IC50 (PC-3 cells) | Selectivity index (SI), prostate cancer (PC-3) (PC-3 cells)
C(#Cc1ccccc1)/C=C1/CN=C(c2ccccc2)C=C(c2ccccc2)S1 [TZEP1] | 29.5 ± 0.8 µM | 69.4 ± 1.2 µM | 0.42 | 38.7 ± 3.2 µM | 0.76 | 12.4 ± 3.2 µM | 2.37
Fc1cccc(C2=NC/C(=C/C#Cc3ccccc3)SC(c3ccccc3)=C2)c1 [TZEP2] | 45.7 ± 2.7 µM | 66.4 ± 1.8 µM | 0.68 | 61.4 ± 1.6 µM | 0.74 | 57.7 ± 1.4 µM | 0.79
Brc1ccc(C2=NC/C(=C/C#Cc3ccccc3)SC(c3ccccc3)=C2)cc1 [TZEP3] | 35.5 ± 1.3 µM | 13.3 ± 1 µM | 2.66 | 60.3 ± 0.8 µM | 0.58 | 71.2 ± 0.9 µM | 0.49
Clc1ccc(C2=CC(c3ccccc3)=NC/C(=C/C#Cc3ccccc3)S2)cc1 [TZEP4] | 47.3 ± 0.7 µM | 81.2 ± 4.4 µM | 0.58 | 71.1 ± 2.6 µM | 0.66 | 73.5 ± 2.2 µM | 0.64
Brc1ccccc1C1=CC(c2ccccc2)=NC/C(=C/C#Cc2ccccc2)S1 [TZEP5] | 20.4 ± 1.4 µM | 22.3 ± 1.8 µM | 0.91 | 45.8 ± 0.9 µM | 0.44 | 54.9 ± 3.2 µM | 0.37
Clc1ccc(C2=NC/C(=C/C#Cc3ccccc3)SC(c3ccccc3Br)=C2)cc1 [TZEP6] | 10.9 ± 3.4 µM | 15.5 ± 2.8 µM | 0.70 | 14.2 ± 2.2 µM | 0.76 | 12.4 ± 3.6 µM | 0.87
